The assay has as its system acetylcholine receptor clustering in C2Cl2 cells. The experiment in a line: Induction of acetylcholine receptor clustering in mouse myoblasts C2Cl2 cells (Test Example 1). The assay is classed as cell-based. The following applies: for Emax / EC50: Mus musculus; for Emax: Myoblast, maximum response, area of acetylcholine receptor cluster region vs 10 ng/ml Agrin (100%), 0.1 ng/ml Agrin = 0%, read-out: Max; for EC50: Myotube, C2Cl2 myotubes, with 0.1 ng/ml Agrin, concentration giving 50% of cluster area of 10 ng/ml Agrin (100%), read-out: EC50. The method, then:
Test Example 1: Evaluation of the Induction of Acetylcholine Receptor Clustering in Mouse Myoblasts C2Cl2 Cells
Induction of acetylcholine receptor clustering by the test compound was evaluated by using fluorescently-labeled Bungarotoxin to image and quantify the acetylcholine receptor cluster region induced by the differentiation of myoblasts into myotubes, and measure the change in area. The following test method was optimized with reference to various reports including FEBS let., 586, 3111-3116 (2012). When a concentration response curve is obtained by plotting the logarithmic concentration of the test compound on the horizontal axis and the ratio of the area of acetylcholine receptor cluster region on the vertical axis, the inducing action of the test compound can be determined.
A concentration response curve as an index indicating acetylcholine receptor clustering inducing action of the test compound in mouse C2Cl2 cells was prepared. C2Cl2 cells (ATCC Number: CRL-1772) were seeded at about 5000 cells/well on a 384-well plate (354667; Corning) coated with type I collagen and allowed to incubate at 37 degrees Celsius overnight in DMEM+20% FBS+1% penicillin/streptomycin medium. The following day, the medium was removed and replaced with a differentiation medium containing DMEM+2% FBS+1% penicillin/streptomycin, and allowed to incubate at 37 degrees Celsius for 4 days. The test compound was dissolved in DMSO and added to a differentiation medium containing 0.1 ng/ml Agrin (550-AG-100; R&D systems) such that the final concentration was […] (3-fold serial dilution) or 0.00017 to 3.3 μM (3-fold serial dilution). The final concentration of DMSO was 0.3%. After the 4 days of incubation, the differentiation medium was replaced with a differentiation medium containing the test compound and 0.1 ng/ml Agrin or a differentiation medium containing 0.1 ng/ml Agrin or 10 ng/ml Agrin alone, and allowed to incubate at 37 degrees Celsius overnight. The next day, 10 μl of DMEM containing Bungarotoxin-Alexa488 (B13422; Life technologies) was added to the differentiation medium containing test compound and Agrin and Agrin alone so that the final concentration of Bungarotoxin-Alexa488 was 1 μg/ml, and was allowed to incubate at 37 degrees Celsius for 1 hour to label the acetylcholine receptor. After removing all the medium, 4% PFA was added to each well and allowed to incubate at room temperature for 10 minutes, then washed with PBS, and allowed to incubate at room temperature for 30 minutes in PBS containing 5% goat serum and 0.3% Triton X-100. After removing the PBS solution, PBS-Tween20 (28352; Thermo fisher scientific) containing Anti-Myosin Heavy Chain eFluor (registered trademark) 660 (50-6503-82; eBioscience) and DAPI (340-07971; Dojindo) was added to each well and allowed to incubate at room temperature for 1 hour to label the myotubes and nuclei. After washing three times with PBS-Tween20, the fluorescence was imaged using IN Cell Analyzer 6000 (GE Healthcare). […] The response of control group (1) was regarded as 0% and the response of the control group (2) was regarded as 100%. For quantification, the signal of only the acetylcholine receptor present in the myotube was used to eliminate non-specific fluorescence.
EC50 and Max value were used as indicators of activity in order to quantitatively evaluate the inducing action of the test compound on acetylcholine receptor clustering. EC50 value is a test compound concentration which indicates 50% in terms of the area of acetylcholine receptor cluster region compared to that of 10 ng/ml Agrin (regarded as 100%) in the concentration response curve. EC50 was calculated by nonlinear regression analysis from the concentration response curve using the area of the cluster region of the test compound as an index. Max value is the maximum response value. […]

Where a name gives a salt, the structure may show the parent alone.

As a reminder, the EC50 is the concentration that produces a half-maximal response. As to `Cc1cc(-c2c(F)cc(S(=O)(=O)N3CC[C@H](F)C3)cc2F)nc2cc(C(=O)O)ccc12` [Example 1, 2-{2,6-difluoro-4-[(3S)-3-fluoropyrrolidine-1-sulfonyl]phenyl}-4-methylquinoline-7-carboxylic acid], the Emax amounted to 91.9% and the EC50 turned out to be 0.064 µM.
As to `Cc1cc(-c2c(F)cc(S(=O)(=O)N3CCC(F)CC3)cc2F)nc2cc(C(=O)N3CC4(CN(C)C4)C3)ccc12` [Example 3, {2-[2,6-difluoro-4-(4-fluoropiperidine-1-sulfonyl)phenyl]-4-methylquinolin-7-yl}(6-methyl-2,6-diazaspiro[3.3]heptan-2-yl) methanone], the Emax amounted to 91.8% and the concentration giving a half-maximal response (EC50) was determined as 0.002 µM.
`Cc1cc(-c2c(F)cc(S(=O)(=O)N3CCC(F)CC3)cc2F)nc2cc(C(=O)N3CC(N)C3)ccc12` [Example 4, (3-aminoazetidin-1-yl) {2-[2,6-difluoro-4-(4-fluoropiperidine-1-sulfonyl)phenyl]-4-methylquinolin-7-yl}methanone]: the Emax is 81% and the EC50 amounted to 0.013 µM.
The matching figures for `Cc1cc(-c2ccc(S(=O)(=O)N3CCC(F)CC3)cc2F)nc2cc(C(=O)O)ccc12` [Example 5, 2-[2-fluoro-4-(4-fluoropiperidine-1-sulfonyl)phenyl]-4-methylquinoline-7-carboxylic acid]: 86.8% and 0.095 µM.
On the same counts, the results for `Cc1cc(-c2c(F)cc(S(=O)(=O)N3CC[C@H](F)C3)cc2F)nc2nc(OCC(=O)O)ccc12` [Example 6, [(7-{2,6-difluoro-4-[(3S)-3-fluoropyrrolidine-1-sulfonyl]phenyl}-5-methyl-1,8-naphthyridin-2-yl)oxy]acetic acid] are 76.3% and 1.82 µM.
The matching figures for `Cc1cc(-c2ccc(S(=O)(=O)N3CC[C@H](F)C3)cc2F)nc2c(F)c(C(=O)O)ccc12` [Example 7, 8-fluoro-2-{2-fluoro-4-[(3S)-3-fluoropyrrolidine-1-sulfonyl]phenyl}-4-methylquinoline-7-carboxylic acid]: 78.4% and 1.85 µM.
Regarding `COc1cc(S(=O)(=O)N2CC[C@H](F)C2)cc(F)c1-c1cc(C)c2ccc(C(=O)O)nc2c1` [Example 8, 7-{2-fluoro-4-[(3S)-3-fluoropyrrolidine-1-sulfonyl]-6-methoxyphenyl}-5-methylquinoline-2-carboxylic acid], the Emax was 88.2% and the EC50 turned out to be 0.045 µM.
On to `Cc1cc(-c2ccc(S(=O)(=O)N3CC[C@H](F)C3)cc2F)nc2cc(C(=O)NS(=O)(=O)C3CC3)ccc12` [Example 9, N-(cyclopropanesulfonyl)-2-{2-fluoro-4-[(3S)-3-fluoropyrrolidine-1-sulfonyl]phenyl}-4-methylquinoline-7-carboxamide], for which the Emax stood at 34.9%. Moreover, the “response, % at 1.1 μM” value (at 1.1 μM, vs 10 ng/ml Agrin (100%)) stood at 34.9% at 1.1 μM.
For `CNCCNC(=O)c1ccc2c(C)cc(-c3c(F)cc(S(=O)(=O)N4CC[C@H](F)C4)cc3F)nc2c1` [Example 10, 2-{2,6-difluoro-4-[(3S)-3-fluoropyrrolidine-1-sulfonyl]phenyl}-4-methyl-N-[2-(methylamino)ethyl]quinoline-7-carboxamide hydrochloride], the Emax turned out to be 96.7% and the EC50 is 0.016 µM.
As for `Cc1c(F)c(-c2c(F)cc(S(=O)(=O)N3CC[C@H](F)C3)cc2F)nc2cc(C(=O)N3CC(C)(C(=O)O)C3)ccc12` [Example 11, 1-(2-{2,6-difluoro-4-[(3S)-3-fluoropyrrolidine-1-sulfonyl]phenyl}-3-fluoro-4-methylquinoline-7-carbonyl)-3-methylazetidine-3-carboxylic acid], the Emax came to 80.2% and the EC50 is 0.303 µM.
As for `Cc1cc(-c2c(F)cc(S(=O)(=O)N3CC[C@H](F)C3)cc2F)nc2cc(C(=O)N[C@@H](CN)C(=O)O)ccc12` [Example 12, (2S)-3-amino-2-(2-{2,6-difluoro-4-[(3S)-3-fluoropyrrolidine-1-sulfonyl]phenyl}-4-methylquinoline-7-carboxamido) propanoic acid hydrochloride], the Emax stood at 69.7% and the EC50 stood at 0.268 µM.
On the same counts, the results for `Cc1cc(-c2ccc(S(=O)(=O)N3CC[C@H](F)C3)cc2F)nc2cc(OCCN)ccc12` [Example 13, 2-[(2-{2-fluoro-4-[(3S)-3-fluoropyrrolidine-1-sulfonyl]phenyl}-4-methylquinolin-7-yl)oxy]ethan-1-amine hydrochloride] are 117% and 0.003 µM.
As for `Cc1cc(-c2c(F)cc(S(=O)(=O)N3CCC(F)CC3)cc2F)nc2cc(C(=O)N3CC4(CNC4)C3)ccc12` [Example 14, (2,6-diazaspiro[3.3]heptan-2-yl) {2-[2,6-difluoro-4-(4-fluoropiperidine-1-sulfonyl)phenyl]-4-methylquinolin-7-yl}methanone], the Emax was 83.5% and the EC50 turned out to be 0.021 µM.
The matching figures for `CNCCNC(=O)c1ccc2c(C)cc(-c3c(F)cc(S(=O)(=O)N4CC[C@H](F)C4)cc3F)c(F)c2n1` [Example 15, 7-{2,6-difluoro-4-[(3S)-3-fluoropyrrolidine-1-sulfonyl]phenyl}-8-fluoro-5-methyl-N-[2-(methylamino)ethyl]quinoline-2-carboxamide hydrochloride]: 105% and 0.002 µM.
On to `CNCCCc1ccc2c(C)c(F)c(-c3c(F)cc(S(=O)(=O)N4CC[C@H](F)C4)cc3F)nc2c1` [Example 16, 3-(2-{2,6-difluoro-4-[(3S)-3-fluoropyrrolidine-1-sulfonyl]phenyl}-3-fluoro-4-methylquinolin-7-yl)-N-methylpropan-1-amine hydrochloride], for which the Emax amounted to 91.1% and the EC50 was 0.045 µM.
On the same counts, the results for `Cc1cc(-c2c(F)cc(S(=O)(=O)N3CC[C@H](F)C3)cc2F)nc2nc(C3CCN(C)CC3)ccc12` [Example 17, 2-{2,6-difluoro-4-[(3S)-3-fluoropyrrolidine-1-sulfonyl]phenyl}-4-methyl-7-(1-methylpiperidin-4-yl)-1,8-naphthyridine hydrochloride] are 78.7% and 0.065 µM.
Consider `Cc1c(F)c(-c2c(F)cc(S(=O)(=O)N3CC[C@H](F)C3)cc2F)nc2cc(C(=O)O)ccc12` [Example 20, 2-{2,6-difluoro-4-[(3S)-3-fluoropyrrolidine-1-sulfonyl]phenyl}-3-fluoro-4-methylquinoline-7-carboxylic acid], for which the Emax was 86.5% and the EC50 was 0.013 µM.
With `Cc1cc(-c2c(F)cc(S(=O)(=O)N3CCCC3)cc2F)nc2cc(C(=O)O)ccc12` [Example 21], the Emax was 97.3% and the EC50 is 0.147 µM.
As to `Cc1cc(-c2c(F)cc(S(=O)(=O)N3CC[C@@H](F)C3)cc2F)nc2cc(C(=O)O)ccc12` [Example 22], the Emax amounted to 84.8% and the half-maximal effective concentration (EC50) came out at 1.9 µM.
On the same counts, the results for `Cc1c(F)c(-c2c(F)cc(S(=O)(=O)N3CCCC3)cc2F)nc2cc(C(=O)O)ccc12` [Example 23] are 85.9% and 0.069 µM.
Take `Cc1c(F)c(-c2c(F)cc(S(=O)(=O)N3CCC[C@@H]3C)cc2F)nc2cc(C(=O)O)ccc12` [Example 24]: the Emax turned out to be 92.3% and the EC50 was 0.011 µM.
On the same counts, the results for `Cc1c(F)c(-c2c(F)cc(S(=O)(=O)N3CCCC34CC4)cc2F)nc2cc(C(=O)O)ccc12` [Example 25] are 105% and 0.182 µM.
On the same counts, the results for `Cc1c(F)c(-c2c(F)cc(S(=O)(=O)N3CCCC3(C)C)cc2F)nc2cc(C(=O)O)ccc12` [Example 26] are 99.8% and 0.019 µM.
